Test results: ChEMBL document CHEMBL2203104, “Recent advances in antitubercular natural products” (Eur J Med Chem, 2012)
≈ marks a conversion by molar mass, not a printed value. Numbered stars: 1 amine (or outer) side, 2 acyl side, 3 side chain; on linkers, the order of the positions; unused ones are H or OH. Square brackets hold non-standard residues; d marks the D form. Peptide text beside a SMILES is read from it. * marks the point of attachment. X1 = CCC(=O)C[C@@H](O)C[C@@H](C)C[C@H](N[*:1])C(=O)[*:2]; Alaψ(CH2NMeCH2CH2OH) = C[C@@H](CN(C)CCO)N*; Decanoyl(2R-Me) = CCCCCCCC[C@@H](C)C(=O)*; Aib = CC(C)(N)C(=O)O

tested on: Mycobacterium tuberculosis; test: Antimycobacterial activity against Mycobacterium tuberculosis H37Ra; format: functional; settings: not given

Row | Compound | MIC
1 | CCOC(=O)/C=C/c1ccc(OC)cc1 [4-METHOXY ETHYL CINNAMATE] | 485 µM
2 | CCCCCCCCCCCC(=O)c1c(O)cc(O)cc1O [DODECANOYLPHLOROGLUCINOL] | 50 µg/mL
3 | CC(=O)O[C@@H]1C[C@H]2C(C)(C)C(=O)C=C[C@]2(C)[C@H]2CC[C@@]3(C)[C@H](c4ccoc4)C(=O)[C@H]4O[C@]43[C@@]21C [EPOXYAZADIRADIONE] | 25 µg/mL
4 | C=C(C)C(=O)O[C@H]1C[C@@]2(C)OC(=CC2=O)/C(CO)=C\[C@H]2OC(=O)C(=C)[C@H]12 [GOIAZENSOLIDE] | 3.1 µg/mL
5 | CC1(C)C=Cc2c(cc3oc(CO)cc(=O)c3c2O)O1 [GREVEICHROMENOL] | 50 µg/mL
6 | C=C[C@H]1C=C[C@H]2[C@@H]3C[C@H](C)CC[C@H]3[C@@H]3Oc4ccc(cc4)C[C@]4(O)NC(=O)[C@H](C(=O)[C@@H]1[C@H]23)C4N1C(=O)[C@H]2C(=O)[C@H]3[C@@H](C=C)C=C[C@H]4[C@@H]5C[C@H](C)CC[C@H]5[C@H](Oc5ccc(cc5)C[C@@H]2C1=O)[C@@H]43 (stereo partly drawn) [HIRSUTELLONE F] | 3.12 µg/mL
7 | O=C1C=C[C@@H](OC(=O)/C=C/c2ccccc2)[C@@H]([C@H]2O[C@@H]2c2ccccc2)O1 [HOWIININ A] | 6.25 µg/mL
8 | C=C1C(=O)O[C@H]2[C@H]1[C@@H](OC(=O)/C(C)=C\C)C[C@@]1(C)OC(=CC1=O)C(=C)[C@H]2O [ISOCENTRATHERIN] | 3.1 µg/mL
9 | C=C(C)C(=O)O[C@H]1C[C@@]2(C)OC(=CC2=O)C(=C)[C@@H](O)[C@H]2OC(=O)C(=C)[C@@H]21 [ISOGOIAZENSOLIDE] | 1.5 µg/mL
10 | COc1c(-c2ccccc2)oc2c3c(ccc2c1=O)OC(C)(C)C=C3 [KARANJACHROMENE] | 12.5 µg/mL
11 | O=c1cc(-c2ccccc2)oc2c1ccc1occc12 [LANCEOLATIN B] | 50 µg/mL
12 | C=C1C(=O)O[C@@H]2/C=C(/CO)C3=CC(=O)[C@@](C)(C[C@H](OC(=O)/C(C)=C/C)[C@@H]12)O3 [LYCHNOPHOROLIDE B] | 6.2 µg/mL
13 | Oc1ccc2c(c1)OC[C@H]1c3cc4c(cc3O[C@@H]21)OCO4 [MAACKIAIN] | 50 µg/mL
14 | O=C(CCCCCCCCc1ccccc1)c1c(O)cccc1O [MALABARICONE A] | 25 µg/mL
15 | COC(=O)/C=C/c1ccc(O)c(O)c1 [METHYLCAFFEATE] | 25 µg/mL
16 | CCCCC/C=C/C=C/C(=O)NCC(C)C [PELLITORIN] | 50 µg/mL
17 | C=C(C)CC(O)c1c(OC)cc(O)c2c(=O)cc(C)oc12 (stereo not drawn) [PERFORAMONE B] | 25 µg/mL
18 | CC1(C)C=Cc2c(cc(O)c3c(=O)cc(CO)oc23)O1 [PERFORAMONE D] | 25 µg/mL
19 | COc1c2ccoc2cc2oc(-c3ccccc3)cc(=O)c12 [PINNATIN] | 12.5 µg/mL
20 | O=C1C[C@@H](c2ccccc2)Oc2cc(O)cc(O)c21 [PINOCEMBRIN] | 12.5 µg/mL
21 | CC[C@H](C)[C@H]1C(=O)N[C@@H](Cc2ccc(OCC=C(C)C)cc2)C(=O)N(C)[C@@H](C)C(=O)O[C@H](Cc2ccccc2)C(=O)N2CCC[C@H]2C(=O)N[C@@H](CO)C(=O)N1C [PULLULARIN A] | 25 µg/mL
22 | CC(C)=CCOc1ccc(C[C@@H]2NC(=O)[C@H](C(C)C)N(C)C(=O)[C@H](CO)NC(=O)[C@@H]3CCCN3C(=O)[C@@H](Cc3ccccc3)OC(=O)[C@H](C)N(C)C2=O)cc1 [PULLULARIN C] | 50 µg/mL
23 | NC(=O)c1cnccn1 [PYRAZINAMIDE] | 810 µM
24 | CCCCC/C=C/C=C/C(=O)N1CCCC1 [SARMENTINE] | 50 µg/mL
25 | O=C(/C=C/CC/C=C/c1ccc2c(c1)OCO2)N1CCCC1 [SARMENTOSINE] | 50 µg/mL
26 | CCCCCCCC[C@@H](C)C(=O)N1CCC[C@H]1C(=O)N[C@@H](C[C@H](C)C[C@H](O)CC(=O)CC)C(=O)NC(C)(C)C(=O)NC(C)(C)C(=O)N[C@H](C(=O)N[C@H](C(=O)NC(C)(C)C(=O)NC(C)(C)C(=O)N[C@@H](C)CN(C)CCO)C(C)C)[C@@H](C)CC [TRICHODERIN A] ({Decanoyl(2R-Me)}-P[X1][Aib][Aib]IV[Aib][Aib]-{Alaψ(CH2NMeCH2CH2OH)}) | 25 µg/mL

tested on: Mycobacterium tuberculosis; test: Antimycobacterial activity against Mycobacterium tuberculosis H37Rv; format: functional; settings: Mycobacterium tuberculosis, H37Rv; read-out: MIC

Row | Compound | MIC
27 | CCOC(=O)/C=C/c1ccc(OC)cc1 [4-METHOXY ETHYL CINNAMATE] | 242 µM (≈ 49.9 µg/mL)
28 | NC(=O)c1cnccn1 [PYRAZINAMIDE] | 810 µM (≈ 99.7 µg/mL)
